Test results from US5962487A, “Antipicornaviral compounds and methods for their use and preparation” (Agouron Pharmaceuticals, Inc., priority 1997, dated 1999).
Read-outs that look alike come from different tables or passages of the source.

Assays:
HRV-14 = assay: Antirhinoviral HI-HeLa Cell Culture Assay (cell protection, XTT), HRV-14; type: cell-based, human rhinovirus; settings: for TI: CC50/EC50, HRV serotype-14, 2880 min; for EC50: Rhinovirus B, HRV14, 48 h, HRV serotype-14 infected HI-HeLa cells, XTT, two days
Procedure, shortened: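 HI-HeLa cells infected at m.o.i. 0.13 (or mock-infected), 8×10^5 cells/mL, incubated with compounds for two days; XTT/PMS formazan read at 450/650 nm. EC50 is the concentration restoring formazan in infected cells to 50% of compound-free mock-infected; CC50 is 50% decrease in mock-infected cells; TI = CC50/EC50.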

in vitro [1] = type: cell-based; settings: human, hi-hela cells
Procedure, shortened: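 HI-HeLa cells infected with HRV-14 at m.o.i. 0.13 or mock-infected, incubated with compounds for two days; XTT/PMS formazan read at 450/650 nm. EC50 as concentration restoring formazan to 50% of mock-infected level; CC50 from mock-infected cells; TI = CC50/EC50.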

CVB-3 = assay: Anticoxsackieviral HI-HeLa Cell Culture Assay, CVB-3; type: cell-based, Coxsackie strain B-3; settings: 24 h; CVB-3 infection of Hi-HeLa cells, XTT, one day
Protocol: (§1) The ability of compounds to protect cells against CVA-21 or CVB-3 infection was measured by the XTT dye reduction method. Briefly, HI-HeLa cells were infected with CVA-21 or CVB-3 at a multiplicity of infection (m.o.i.) of 0.05 (CVA-21) and 0.08 (CVB-3) or mock-infected with medium only. Infected or uninfected cells were resuspended at 4×10^4 cells per mL and incubated with appropriate concentrations of drug. One day later, XTT/PMS was added to test plates, and the amount of formazan produced was quantified spectrophotometrically at 450/650 nm. The EC50 was calculated as the concentration of drug that increased the percentage of formazan production in drug-treated, virus-infected cells to 50% of that produced by drug-free, uninfected cells. The 50% cytotoxic dose (CC50) was calculated as the concentration of drug that decreased the percentage of formazan produced in drug-treated, uninfected cells to 50% of that produced in drug-free, uninfected cells. The therapeutic index (TI) was calculated by dividing the CC50 by the EC50.
(§2) The Coxsackie strains A-21 (CVA-21) and B-3 (CVB-3) were purchased from American Type Culture Collection (ATCC). Virus stocks were propagated and antiviral assays were performed in HI-HeLa cells (ATCC). Cells were grown in Minimal Essential Medium with 10% fetal bovine serum.

CVA-21 = assay: Anticoxsackieviral HI-HeLa Cell Culture Assay, CVA-21; type: cell-based, Coxsackie strain A-21; settings: for EC50: 24 h, CVA-21 infection of Hi-HeLa cells, XTT, one day
Protocol: as §1, §2

in vitro [2] = type: cell-based; settings: human, hi-hela cells; remark: listed apart in the source
Protocol: as §1, §2

HI-HeLa cells = assay: in vitro; type: cell-based; settings: human, 24 h
Protocol: as §1, §2

ECHO-11 = assay: Echovirus-11 MRC5 Cell Culture Assay; type: cell-based, Echovirus strain 11; settings: for EC50: Echovirus, 24 h, ECHO-11 infection of MRC5 cells, XTT, one day
Protocol: (§3) The Echovirus strain 11 (ECHO-11) and Enterovirus strain 70 (ENT-70) were purchased from American Type Culture Collection (ATCC). Virus stocks were propagated and antiviral assays were performed in MRC5 cells (ATCC). Cells were grown in Minimal Essential Medium with 10% fetal bovine serum.
as §1, with “ECHO-11” for “CVA-21”, “ENT-70” for “CVB-3”, “MRC5” for “HI-HeLa”, “0.0013 (ECHO-11)” for “0.05 (CVA-21)”, “0.0017 (ENT-70)” for “0.08 (CVB-3)”, “2×10^4” for “4×10^4”

ENT-70 = assay: Enterovirus-70 MRC5 Cell Culture Assay; type: cell-based, Enterovirus strain 70; settings: for EC50: Enterovirus, 24 h, ENT-70 infection of MRC5 cells, XTT, one day
Protocol: as §3
as §1, with “ECHO-11” for “CVA-21”, “ENT-70” for “CVB-3”, “MRC5” for “HI-HeLa”, “0.0013 (ECHO-11)” for “0.05 (CVA-21)”, “0.0017 (ENT-70)” for “0.08 (CVB-3)”, “2×10^4” for “4×10^4”

in vitro [3] = type: cell-based; settings: human, mrc5 cells
Protocol: as §3
as §1, with “ECHO-11” for “CVA-21”, “ENT-70” for “CVB-3”, “MRC5” for “HI-HeLa”, “0.0013 (ECHO-11)” for “0.05 (CVA-21)”, “0.0017 (ENT-70)” for “0.08 (CVB-3)”, “2×10^4” for “4×10^4”

MRC5 cells = assay: in vitro; type: cell-based
Protocol: as §3
as §1, with “ECHO-11” for “CVA-21”, “ENT-70” for “CVB-3”, “MRC5” for “HI-HeLa”, “0.0013 (ECHO-11)” for “0.05 (CVA-21)”, “0.0017 (ENT-70)” for “0.08 (CVB-3)”, “2×10^4” for “4×10^4”

[4] = molecular target: T1, Rhinovirus 3C protease (RVP) serotype-14 (Human rhinovirus 14, UniProt P03303); assay: Inhibition of Rhinovirus Protease, serotype 14 (FRET assay); type: biochemical; settings: for kinact/KI: read-out: kobs/I
T1 construct: Recombinant Rhinovirus 3C proteases from serotypes 14, 16, 2 or 89 were prepared; made in house
T1 sequence (P03303 1538-1719): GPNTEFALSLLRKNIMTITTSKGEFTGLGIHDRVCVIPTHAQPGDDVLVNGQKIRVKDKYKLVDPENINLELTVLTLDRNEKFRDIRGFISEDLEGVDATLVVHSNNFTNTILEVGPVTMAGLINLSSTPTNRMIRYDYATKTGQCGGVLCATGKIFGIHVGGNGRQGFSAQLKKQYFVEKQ
Procedure, shortened: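 Recombinant HRV 3C protease (50–100 nM) in 50 mM tris pH 7.6, 1 mM EDTA, 2% DMSO, with ~1 μM DABCYL-GRAVFQGPVG-EDANS FRET substrate; cleavage read as fluorescence increase. Ki: compound and enzyme preincubated 10 min at 30° C before substrate start; kobs/I from enzyme-start progress curves. Values are percent inhibition at stated μM, or Ki.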

HRV 1A = assay: Antirhinoviral HI-HeLa Cell Culture Assay (cell protection, XTT), HRV 1A; type: cell-based, human rhinovirus
Protocol: (§4) In the Cell Protection Assay, the ability of compounds to protect cells against HRV infection was measured by the XTT dye reduction method. This method is described in O. S. Weislow, R. Kiser, D. L. Fine, J. Bader, R. H. Shoemaker, and M. R. Boyd, J. Natl. Cancer Inst. 1989, 81, 577-586, which document is entirely incorporated herein by reference.
(§5) HI-HeLa cells were infected with HRV-14 (unless otherwise noted) at a multiplicity of infection (m.o.i.) of 0.13 (virus particles/cell) or mock-infected with medium only. Infected or mock-infected cells were resuspended at 8×10^5 cells per mL and incubated with appropriate concentrations of compounds of formulas I and II. Two days later, XTT/PMS was added to test plates, and the amount of formazan produced was quantified spectrophotometrically at 450/650 nm. The EC50 was calculated as the concentration of compound that increased the percentage of formazan production in compound-treated, virus-infected cells to 50% of that produced by compound-free mock-infected cells. The 50% cytotoxic dose (CC50) was calculated as the concentration of compound that decreased the percentage of formazan produced in compound-treated, mock-infected cells to 50% of that produced in compound-free, mock-infected cells. The therapeutic index (TI) was calculated by dividing the CC50 by the EC50. […]

HRV 10 = assay: Antirhinoviral HI-HeLa Cell Culture Assay (cell protection, XTT), HRV 10; type: cell-based, human rhinovirus
Protocol: as §4, §5

[5] = molecular target: T2, Rhinovirus 3C protease (RVP) serotype 2 (Human rhinovirus 2, UniProt P04936); assay: Inhibition of Rhinovirus Protease, serotype 2 (FRET assay); type: biochemical; settings: enzyme start experiments, read-out: kobs/I
T2 construct: Recombinant Rhinovirus 3C proteases from serotypes 14, 16, 2 or 89 were prepared; made in house
T2 sequence (P04936 1508-1690): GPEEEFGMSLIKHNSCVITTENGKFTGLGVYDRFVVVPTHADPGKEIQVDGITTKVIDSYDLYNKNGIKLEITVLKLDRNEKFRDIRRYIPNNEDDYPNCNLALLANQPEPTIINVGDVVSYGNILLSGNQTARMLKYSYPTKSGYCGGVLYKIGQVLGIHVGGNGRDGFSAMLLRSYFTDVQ
Protocol: (§6) Stock solutions (50 mM, in DMSO) of various compounds were prepared; dilutions were in the same solvent. Recombinant Rhinovirus 3C proteases from serotypes 14, 16, 2 or 89 were prepared by the following standard chromatographic procedures: (1) ion exchange using Q Sepharose Fast Flow from Pharmacia; (2) affinity chromatography using Affi-Gel Blue from Biorad; and (3) sizing using Sephadex G-100 from Pharmacia. Assays contained 2% DMSO, 50 mM tris pH 7.6, 1 mM EDTA, a compound at the indicated concentrations, approximately 1 μM substrate, and 50-100 nM protease. For Ki determinations, the compound and the enzyme were preincubated for 10 minutes at 30° C. prior to addition of the substrate (substrate start). The kobs/I values were obtained from reactions initiated by addition of enzyme rather than substrate. RVP activity is measured in the fluorescence resonance energy transfer assay. The substrate was (N-terminal) DABCYL-(Gly-Arg-Ala-Val-Phe-Gln-Gly-Pro-Val-Gly)-EDANS. In the uncleaved peptide, the EDANS fluorescence was quenched by the proximal DABCYL moiety. When the peptide was cleaved, the quenching was relieved, and activity was measured as an increase in fluorescence signal.
(§7) In the above table, all data is for RVP serotype-14 unless otherwise noted in parentheses. All strains of human rhinovirus (HRV) were purchased from American Type Culture Collection (ATCC), except for serotype 14, which was produced from the infectious cDNA clone constructed and supplied to us by Dr. Roland Rueckert at the Institute for Molecular Virology, University of Wisconsin, Madison, Wis. The column designated INHIB represents the percent inhibition, with the concentration of the compound in μM indicated in parentheses, unless Ki was assigned as designated by (Ki), at 10 minute preincubation with 50 nM RVP prior to addition of substrate was used. The data in the column designated kobs/I was measured from progress curves in enzyme start experiments.

[6] = molecular target: T3, Rhinovirus 3C protease (RVP) serotype 16 (Human rhinovirus 16, UniProt Q82122); assay: Inhibition of Rhinovirus Protease, serotype 16 (FRET assay); type: biochemical; settings: enzyme start experiments, read-out: kobs/I
T3 construct: Recombinant Rhinovirus 3C proteases from serotypes 14, 16, 2 or 89 were prepared; made in house
T3 sequence (Q82122 1511-1693): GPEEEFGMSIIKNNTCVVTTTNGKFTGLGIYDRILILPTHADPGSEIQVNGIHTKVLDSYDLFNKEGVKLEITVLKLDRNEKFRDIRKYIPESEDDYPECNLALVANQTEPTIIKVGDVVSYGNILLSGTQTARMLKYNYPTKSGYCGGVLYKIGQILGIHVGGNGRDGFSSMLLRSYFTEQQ
Protocol: as §6, §7

Compound	TI (HRV-14)	EC50 (HRV-14)	CC50 at 48 h (in vitro [1])	EC50 (CVB-3)	EC50 (CVA-21)	CC50 at 24 h (in vitro [2])	CC50 (HI-HeLa cells)	EC50 (ECHO-11)	EC50 (ENT-70)	CC50 at 24 h (in vitro [3])	CC50 (MRC5 cells; human, mrc5 cells, 24 h)	kinact/KI [4]	other results
Cc1cc(CCCCCOc2c(Cl)cc(C3=NCCO3)cc2Cl)on1 [WIN 54954, reference compound]	> 30	2.13 µM	> 63 µM	> 100 µM	> 100 µM	> 100 µM	> 100 µM	> 100 µM	> 100 µM	> 100 µM	> 100 µM	–	–
CCOC(=O)/C=C/[C@H](CCC(N)=O)NC(=O)[C@H](Cc1ccccc1)N(C)C(=O)[C@H](CC(C)C)NC(=O)c1cc(C)on1 [Compound 59]	> 714	0.14 µM	> 100 µM	–	–	–	–	–	–	–	–	108000 M⁻¹ s⁻¹	TI (HRV 1A; CC50/EC50, HRV 1A, 2880 min): > 250; EC50 (HRV 1A; Human rhinovirus sp., HRV 1A infected HI-HeLa cells): 0.4 µM; TI (HRV 10; CC50/EC50, HRV 10, 2880 min): > 250; EC50 (HRV 10; Human rhinovirus sp., HRV 10 infected HI-HeLa cells): 0.4 µM
CCOC(=O)/C=C/[C@H](CCC(N)=O)NC(=O)[C@H](Cc1ccc(OC)cc1)N(C)C(=O)[C@H](CC(C)C)NC(=O)SCC [Compound 4]	870	0.23 µM	200 µM	–	1.8 µM	200 µM	–	3.2 µM	0.3 µM	200 µM	–	43800 M⁻¹ s⁻¹	Ki ([4]; RVP serotype-14, 10 minute preincubation with 50 nM RVP prior to addition of substrate, read-out: INHIB (Ki)): 2.9 µM; kinact/KI [5]: 541 M⁻¹ s⁻¹; kinact/KI [6]: 2010 M⁻¹ s⁻¹; TI (CVA-21; CC50/EC50, CVA-21): 111; TI (ECHO-11; CC50/EC50, ECHO-11, 1440 min): 62.5; TI (ENT-70; CC50/EC50, ENT-70, 1440 min): 667; CC50 (MRC5 cells): 200 µM
CCOC(=O)c1ccc(OCCC2CCN(c3ccc(C)nn3)CC2)cc1 [Pirodavir, reference compound]	> 300	0.03 µM	> 10 µM	> 100 µM	> 100 µM	> 100 µM	> 100 µM	> 100 µM	> 100 µM	> 100 µM	> 100 µM	–	–
